According to patent US7166622B2, “Substituted phenylsulfonamide inhibitors of beta amyloid production” (Wyeth, priority 2002, dated 2007):
Where two headings read alike, the source gives them in different places.

How the values were obtained:
[1] = tested on: beta amyloid production; test: Repressor Release Assay (RRA); assay type: cell-based; conditions: for fold induction at 10 µg/mL / fold induction at 3 µg/mL / fold induction at 20 µg/mL: read-out: APPI Fold Increase; for fold induction at 3 µg/mL: Conc 3 μg/ml; for APPI % of Example #98: relative to Example 98
Method in brief: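 CHO-K1 cells transiently co-transfected with pRSVO-luc and an APP-lacI construct, replated, then treated in duplicate for 36-48 h at 37 °C, 5% CO2. Compounds diluted in 25 mM Hepes, with Hepes/1% DMSO as diluent control. Luciferase read-out in relative light units; toxicity scored 1 non-toxic, 0 toxic.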

[2] = tested on: CHO-K1 cells; test: Toxicity in RRA (loss of luciferase signal); conditions: toxicity = loss of signal (<0.75 fold increase)
Protocol: The beta amyloid inhibitory activity of the compounds of the present invention was determined using the Repressor Release Assay (RRA).
“Fold Increase” refers to the amount of luciferase activity (measured in relative light units) over diluent control. “SEM” refers to the standard error of the mean for fold increase.

[3] = Conc 10 μg/ml, luciferase activity over diluent control
[4] = luciferase activity over diluent control
[5] = Conc 20 μg/ml, luciferase activity over diluent control

Molecule	fold induction at 10 µg/mL [1, 3]	(%)APPI Toxicity ([2]; Conc 10 μg/ml)	(%)APPI Toxicity ([2]; Conc 20 μg/ml)	fold induction at 20 µg/mL [1, 5]	also measured
C=CCCC(O)[C@@H](NS(=O)(=O)c1ccc(Br)cc1)[C@@H](C)CC (stereo partly drawn) [Example 161, 4-bromo-N-{(1S)-2-hydroxy-1-[(1S)-1-methylpropyl]-5-hexenyl}benzenesulfonamide]	1.69	1 (1=non-toxic)			
CC[C@H](C)[C@@H](CO)NS(=O)(=O)c1ccc(Cl)cc1 [Example 91, 4-Chloro-N-[(1S,2S)-1-(hydroxymethyl)-2-methylbutyl]benzenesulfonamide]	2.38	1 (1=non-toxic)	1 (1=non-toxic)		fold induction at 3 µg/mL [1, 4]: 1.71; (%)APPI Toxicity ([2]; Conc 3 μg/ml): 1 (1=non-toxic)
C[C@H](c1ccccc1)[C@@H](CO)NS(=O)(=O)c1ccc(Cl)cc1 [Example 51, 4-chloro-N-[(1S,2R)-1-(hydroxymethyl)-2-phenylpropyl]benzenesulfonamide]					fold induction at 20 µg/mL ([1]; Conc 20 μg/ml, luciferase activity (RLU) over diluent control): 1.6; (%)APPI Toxicity ([2]; Conc 20 μg/ml, 1=non-toxic, 0=toxic): 1 (1=non-toxic)
CC[C@H](C)[C@H](NS(=O)(=O)c1ccc(Cl)cc1)C(O)c1ccccc1C (stereo partly drawn) [Example 171, 4-chloro-N-{(1S,2S)-1-[hydroxy(2-methylphenyl)methyl]-2-methylbutyl}benzenesulfonamide]	1.54	1 (1=non-toxic)			
CCCCCCC(O)[C@@H](NS(=O)(=O)c1ccc(Cl)cc1)[C@@H](C)CC (stereo partly drawn) [Example 167, 4-chloro-N-{(1S)-2-hydroxy-1-[(1S)-1-methylpropyl]octyl}benzenesulfonamide]	9.66	1 (1=non-toxic)			
O=S(=O)(NC1(CO)CCc2ccccc21)c1ccc(Cl)cc1 (centres unmarked) [Example 124, 4-chloro-N-[1-(hydroxymethyl)-2,3-dihydro-1H-inden-1-yl]benzenesulfonamide]			1 (1=non-toxic)	2	
CC[C@H](C)[C@@H](CO)NS(=O)(=O)c1ccccc1F [Example 11, 2-fluoro-N-[(1S,2S)-1-(hydroxymethyl)-2-methylbutyl]benzenesulfonamide]			1 (1=non-toxic)	2.3	
CC[C@H](C)[C@H](NS(=O)(=O)c1ccc(Br)cc1)C(O)c1ccc(F)cc1 (stereo partly drawn) [Example 154, 4-bromo-N-{(1S,2S)-1-[(4-fluorophenyl) (hydroxy)methyl]-2-methylbutyl}benzenesulfonamide]	1.68	1 (1=non-toxic)			
CC[C@H](C)[C@H](NS(=O)(=O)c1ccc(Br)cc1)C(O)C=C(C)C (stereo partly drawn) [Example 156, 4-bromo-N-{(1S)-2-hydroxy-4-methyl-1-[(1S)-1-methylpropyl]-3-pentenyl}benzenesulfonamide]	2.01	1 (1=non-toxic)			fold induction at 3 µg/mL [1, 4]: 1.52; (%)APPI Toxicity ([2]; Conc 3 μg/ml): 1 (1=non-toxic)
2-fluoro-N-[(1S)-1-(hydroxy 1-methylethyl]benzenesulfonamide [Example 117]			1 (1=non-toxic)		APPI Fold Increase [1, 5]: 1.5 fold; APPI % of Example #98 ([1]; Conc 20 μg/ml): 31%
CC[C@H](C)[C@H](NS(=O)(=O)c1ccc(Cl)cc1)C(O)CCC1OCCCO1 (stereo partly drawn) [Example 179, 4-chloro-N-{(1S)-4-(1,3-dioxan-2-yl)-2-hydroxy-1-[(1S)-1-methylpropyl]butyl} benzenesulfonamide]		1 (1=non-toxic)			APPI Fold Increase [1, 3]: 1.63 fold; APPI % of Example #98 ([1]; Conc 10 μg/ml): 79.4%
CCCCC(CO)NS(=O)(=O)c1ccccc1F (centres unmarked) [Example 110, 2-fluoro-N-[1-(hydroxymethyl)pentyl] benzenesulfonamide]			1 (1=non-toxic)		APPI Fold Increase [1, 5]: 1.7 fold; APPI % of Example #98 ([1]; Conc 20 μg/ml): 46.5%
O=S(=O)(NC1(CO)CCCCC1)c1ccc(Br)cc1 [Example 120, 4-Bromo-N-[1-(hydroxymethyl)-cyclohexyl]-benzenesulfonamide]			1 (1=non-toxic)	5	
CC[C@H](C)[C@H](NS(=O)(=O)c1ccccc1F)C(O)c1ccc(F)cc1 (stereo partly drawn) [Example 207, 2-fluoro-N-{(1S,2S)-1-[(4-fluorophenyl) (hydroxy)methyl]-2-methylbutyl}benzenesulfonamide]	1.81	1 (1=non-toxic)			
CC[C@H](C)[C@@H](CO)NS(=O)(=O)c1ccccc1Br [Example 1, 2-Bromo-N-[(1S,2S)-1-(hydroxymethyl)-2-methylbutyl]benzenesulfonamide]			1 (1=non-toxic)	1.6	
CSc1ccc([C@H](O)[C@H](CO)NS(=O)(=O)c2ccccc2F)cc1 [Example 116, 2-fluoro-N-{(1S,2S)-2-hydroxy-1-(hydroxymethyl)-2-[4-(methylthio)phenyl]ethyl}benzenesulfonamide]			1 (1=non-toxic)	1.6	

Molecule	fold induction at 10 µg/mL [1, 3]	(%)APPI Toxicity ([2]; Conc 10 μg/ml)	(%)APPI Toxicity ([2]; Conc 20 μg/ml)	fold induction at 20 µg/mL [1, 5]	also measured
CC[C@H](C)[C@@H](CO)N(CCSC)S(=O)(=O)c1ccc(Cl)cc1 [Example 47, 4-chloro-N-[(1S,2S)-1-(hydroxymethyl)-2-methylbutyl]-N-[2-(methylthio)ethyl]benzenesulfonamide]			1 (1=non-toxic)	2.4	
CC[C@H](C)[C@@H](CO)N(Cc1ccc(Cl)cc1)S(=O)(=O)c1ccc(Cl)cc1 [Example 43, 4-chloro-N-(4-chlorobenzyl)-N-[(1S,2S)-1-(hydroxymethyl)-2-methylbutyl]benzenesulfonamide]			1 (1=non-toxic)	5.1	
CC[C@H](C)[C@H](NS(=O)(=O)c1cccc(Cl)c1)C(O)(c1ccc(OC)cc1)c1ccc(OC)cc1 [Example 258, 3-chloro-N-((1S,2S)-1-{hydroxy [bis(4-methoxyphenyl)]methyl}-2-methylbutyl)benzenesulfonamide]	1.72	1 (1=non-toxic)			
O=S(=O)(N[C@H](CO)Cc1cc2ccccc2[nH]1)c1ccc(Br)cc1 [Example 19, 4-bromo-N-[(1S)-2-hydroxy-1-(1H-indol-2-ylmethyl)ethyl]benzenesulfonamide]			1 (1=non-toxic)	1.6	
CC[C@H](C)[C@@H](CO)NS(=O)(=O)c1cccc(Cl)c1Cl [Example 23, 2,3-dichloro-N-[(1S,2S)-1-(hydroxymethyl)-2-methylbutyl]benzenesulfonamide]	3.6	1 (1=non-toxic)	1 (1=non-toxic)	8.3	fold induction at 3 µg/mL [1, 4]: 1.67; (%)APPI Toxicity ([2]; Conc 3 μg/ml): 1 (1=non-toxic)
CC[C@H](C)[C@H](NS(=O)(=O)c1ccc(Cl)cc1)C(O)CC(C)C (stereo partly drawn) [Example 173, 4-chloro-N-{(1S)-2-hydroxy-4-methyl-1-[(1S)-1-methylpropyl]pentyl}benzenesulfonamide]	2.56	1 (1=non-toxic)			
CC(C)(C)[C@@H](CO)NS(=O)(=O)c1cc(Cl)c(Cl)cc1Cl [Example 31, 2,4,5-trichloro-N-[(1S)-1-(hydroxymethyl)-2,2-dimethylpropyl]benzenesulfonamide]			1 (1=non-toxic)	2.8	
CC[C@H](C)[C@H](NS(=O)(=O)c1ccc(Br)cc1)C(O)(c1ccccc1)c1ccccc1 [Example 215, 4-bromo-N-{(1S,2S)-1-[hydroxy(diphenyl)methyl]-2-methylbutyl}benzenesulfonamide]	1.65	1 (1=non-toxic)			
CC[C@H](C)[C@H](NS(=O)(=O)c1cccc(Cl)c1)C(O)C(C)C (stereo partly drawn) [Example 190, 3-chloro-N-{(1S)-2-hydroxy-3-methyl-1-[(1S)-1-methylpropyl]butyl}benzenesulfonamide]	1.76	1 (1=non-toxic)			
C=CC(O)[C@@H](NS(=O)(=O)c1ccc(Cl)cc1)[C@@H](C)CC (stereo partly drawn) [Example 174, 4-chloro-N-{(1S)-2-hydroxy-1-[(1S)-1-methylpropyl]-3-butenyl}benzenesulfonamide]	2.1	1 (1=non-toxic)			
O=S(=O)(N[C@H](CO)c1ccccc1)c1ccc(Br)cc1 [Example 101, 4-bromo-N-[(1S)-2-hydroxy-1-phenylethyl]benzenesulfonamide]			1 (1=non-toxic)	1.6	
C=CCC(O)[C@@H](NS(=O)(=O)c1cccc(Cl)c1)[C@@H](C)CC (stereo partly drawn) [Example 194, 3-chloro-N-{(1S)-2-hydroxy-1-[(1S)-1-methylpropyl]-4-pentenyl}benzenesulfonamide]	3.42	1 (1=non-toxic)			
CC(c1ccccc1)C(CO)NS(=O)(=O)c1ccc(Cl)cc1 (centres unmarked) [Example 38, 4-chloro-N-[1-(hydroxymethyl)-2-phenylpropyl]benzenesulfonamide]			1 (1=non-toxic)	3.3	
C=C(C)C(O)(C(=C)C)[C@@H](NS(=O)(=O)c1ccccc1F)[C@@H](C)CC [Example 268, 2-fluoro-N-{(1S)-2-hydroxy-2-isopropenyl-3-methyl-1-[(1S)-1-methylpropyl]-3-butenyl}benzenesulfonamide]	1.75	1 (1=non-toxic)			
O=S(=O)(N[C@H](CO)C1CCCCC1)c1ccc(Br)cc1 [Example 16, 4-Bromo-N-[(1S)-1-cyclohexyl-2-hydroxyethyl]benzenesulfonamide]			1 (1=non-toxic)	2.7	
